Source: patent US20060041013A1, “Alanosine formulations and methods of use” (priority 2004, published 2006)

How the values were obtained:
A-427 = assay: Cell viability MTT assay (Example 3); type: cell-based; conditions: Homo sapiens, 72 h; A-427, NSCLC, MTAP Positive; 3 days
BX-PC3 = assay: Docetaxel, 5-FU, SDX-102 alone or combined, MTT/MTS cytotoxicity (Example 4); type: cell-based; conditions: Homo sapiens, BXPC-3; BX-PC3, Pancreatic, single agent, MTT 72 hours

NC(CN(O)N=O)C(=O)O [L-alanosine, L(−)-2-amino-3-nitrosohydroxylaminopropionic acid]
IC50 (A-427): 3.3 µM | IC50 (BX-PC3): 3 ± 1 µM
